Patent publication US9097706B2, “Insect-based ex vivo model for testing blood-brain barrier penetration and method for exposing insect brain to chemical compounds” (ENTOMOPHARM APS, priority 2009, dated 2015)
Where two headings read alike, the source gives them in different places. Each block holds one compound with its values, some of them ahead of it.

Experiments:
[1] = system: grasshopper BBB (locusta migratoria brain in its cuticle shell)
Method: 1. […] The insects may be obtained from local suppliers or bred in house. The grasshoppers were reared under crowded conditions at 28° C. and a 12:12 dark:light photocycle and fed fresh grass and bran. Before experiments the grasshoppers were fed ecologically cultivated wheat for two weeks. Animals used are adult males (in some experiments females) between two to four weeks after adult emergence. A cut is made through the frontal part of the locust head comprising the most frontal parts including the antennae, the compound eyes, the brain and all neural connections between the brain and the antennae and the eyes. This preparation in its cuticle shell is placed in a well of a microtitre plate containing the test solution. After various times of exposure the preparation is washed in saline and the brain is dissected under microscope with fine forceps. The neural lamella surrounding the brain is removed in saline and the brain is then […] in saline, centrifuged and the supernatant frozen until analyses. Drug concentration is analysed by HPLC, LC/MSMS or other methods.
(§1) A cut was made through the frontal part of the head of adult female locusta migratoria. Each brain in its cuticle shell was placed in a 0.12 mg/ml mianserin solution for 5 minutes. The brain was prepared in saline and removed from the cuticle shell and three brains were placed in each test tube containing 100 ul distilled H2O. 200 ul ACN was added to each tube and the tubes were placed in a sonicator and the brains were disintegrated by approximately 5 seconds of sonication. The samples containing the disintegrated brains were centrifuged for 5 minutes (10000 g at 4° C.).
as §1, with “shell. The brains were washed in Saline. After wash” for “shell and”, “sonication.” for “sonication. The samples containing the disintegrated brains were centrifuged for 5 minutes (10000 g at 4° C.).”
A cut was made through the frontal part of the head of adult female locusta migratoria. Each brain in its cuticle shell was placed in a 0.12 mg/ml mianserin solution for 5 minutes. The brain was prepared in saline and removed from the cuticle shell. To stain the neural lamella Evans Blue was added and the neural lamella was removed. Three brains were placed in each test tube containing 100 ul distilled H2O. 200 ul ACN was added to each tube and the tubes were placed in a sonicator and the brains were disintegrated by approximately 5 seconds of sonication.
A cut was made through the frontal part of the head of the adult locusta migratoria. Each brain in its cuticle shell was placed in a 0.9 mg/ml mianserin solution for 5 minutes. The brain was prepared in saline and removed from the cuticle shell. Three brains were placed in a test tube containing 100 ul PBS. 200 ul ACN was added to each tube. The tubes were placed in a sonicator and the brains were disintegrated by approximately 5 seconds of sonication.
A cut was made through the frontal part of the head of the adult locusta migratoria. Each brain was placed for 5 minutes in a microtiter well with an approximately 0.95 mg/ml solution of mianserin. To stain the neural lamella Evans Blue was added and the neural lamella was removed. Two brains are placed in each test tube and 100 ul distilled H2O and 200 ul ACN is added. The tubes were placed in a sonicator and the brains were disintegrated by approximately 5 seconds of sonication.
A cut was made through the frontal part of the head of the adult locusta migratoria. […] To stain the neural lamella Evans Blue was added and the neural lamella was removed.

Blattodea BBB = conditions: for average concentration in brain supernatant measured by LCMS: Blattodea
Method: A cut was made through the frontal part of the head of the Blattodea. Each brain was placed for 5 minutes in a microtiter well with an approximately 1.0 mg/ml solution of trazodone. To stain the neural lamella Evans Blue was added and the neural lamella was removed. Two brains are placed in each test tube and 50 ul distilled H2O and 100 ul ACN is added. The tubes were placed in a sonicator and the brains were disintegrated by approximately 5 seconds of sonication.

locust brain barrier = experiment: Visual inspection of Evans Blue permeation through the locust brain barrier; type: in vitro ADME, Locusta migratoria; conditions: 5 minutes in Evans Blue; neural lamella removed
Method: A cut was made through the frontal part of the head of the adult locusta migratoria. Each brain was placed for 5 minutes in a microtiter well containing a mixture of Evans Blue. The neural lamella was removed from the brain.

[2] = Locusta migratoria, 5 min, 0.9 mg/ml

Compound: Cn1c(=O)c2c(ncn2C)n(C)c1=O [caffeine]
average concentration in brain supernatant measured by LCMS ([1]; approximately 0.78 mg/ml solution, 5 minutes, neural lamella removed, two brains per tube): 1533 ng/mL
permeation of the grasshopper BBB (in words) ([1]; conclusion from the examples): permeate the grasshopper BBB to a much larger extent than peripheral acting drugs
average concentration in brain supernatant measured by LCMS (Blattodea BBB; approximately 0.1 mg/ml solution, 5 minutes, neural lamella removed, two brains per tube): 152 ng/mL
average concentration in brain supernatant measured by LCMS (Blattodea BBB; approximately 1.0 mg/ml solution, 5 minutes, neural lamella removed, two brains per tube): 1028 ng/mL
permeation of the Blattodea BBB (in words) (Blattodea BBB; conclusion from Examples AB-AG): permeate the Blattodea BBB to a much larger extent than atenolol

Compound: CC(C)NCC(O)COc1cccc2ccccc12 (stereo not shown) [propranolol]
permeation of the grasshopper BBB (in words) [1]: permeate the grasshopper BBB to a much larger extent than peripheral acting drugs
average concentration in brain supernatant measured by LCMS ([1]; Locusta migratoria, 5 min, 0.72 mg/ml): 674 ng/mL

Compound: Cc1cc(-c2ccc(/N=N/c3ccc4c(S(=O)(=O)O)cc(S(=O)(=O)O)c(N)c4c3O)c(C)c2)ccc1/N=N/c1ccc2c(S(=O)(=O)O)cc(S(=O)(=O)O)c(N)c2c1O [Evans Blue]
permeation through the locust brain barrier (visual signs in brain) (locust brain barrier): no significant permeation

Further lines, with some results ahead:

average concentration in brain supernatant measured by LCMS [1, 2]: 1317 ng/mL
average concentration in brain supernatant measured by LCMS (Blattodea BBB; 5 min, 0.1 mg/ml): 127 ng/mL
average concentration in brain supernatant measured by LCMS (Blattodea BBB; 5 min, 1 mg/ml): 768 ng/mL
Compound: O=c1n(CCCN2CCN(c3cccc(Cl)c3)CC2)nc2ccccn12 [trazodone]
permeation of the grasshopper BBB (in words) [1]: permeate the grasshopper BBB to a much larger extent than peripheral acting drugs
permeation of the Blattodea BBB (in words) (Blattodea BBB): permeate the Blattodea BBB to a much larger extent than atenolol

[with lamella]/[without lamella] ratio ([1]; Locusta migratoria, 5 min, 0.1 mg/ml): 1.7
[with lamella]/[without lamella] ratio [1, 2]: 2.3
average concentration in brain supernatant measured by LCMS ([1]; Locusta migratoria, 5 min, 0.95 mg/ml): 1439 ng/mL
Compound: CN1CCN2c3ccccc3Cc3ccccc3C2C1 (stereo not shown) [mianserin]
